# Measured values reported in the supplement of paper PMC9663587.
# How the values were obtained:
# THZ531 = compound: CN(C)C/C=C/C(=O)Nc1ccc(C(=O)N2CCC[C@@H](Nc3ncc(Cl)c(-c4c[nH]c5ccccc45)n3)C2)cc1 [THZ531]; assay: GR value, 72 h; higher = faster growth (1 = untreated, <0 = killing);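 further: breast cancer and non-malignant breast epithelial lines, nine half-log doses, viable cells counted by Hoechst and LIVE/DEAD dye imaging versus time-zero plates and DMSO controls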
# [1] = compound: CCN1CCN(Cc2ccc(Nc3ncc(F)c(-c4cc(F)c5nc(C)n(C(C)C)c5c4)n3)nc2)CC1; assay: as above
# YKL-5-124 = compound: C=CC(=O)Nc1ccc(C(=O)Nc2[nH]nc3c2CN(C(=O)N[C@H](CN(C)C)c2ccccc2)C3(C)C)cc1 [YKL-5-124]; assay: as above
# LEE011/Ribociclib = compound: CN(C)C(=O)c1cc2cnc(Nc3ccc(N4CCNCC4)cn3)nc2n1C1CCCC1 [LEE011/Ribociclib]; assay: as above
# [2] = compound: CCc1cnn2c(NCc3ccc[n+]([O-])c3)cc(N3CCCC[C@H]3CCO)nc12; assay: as above
# BSJ-03-123 [3] = compound: T1, CC(=O)c1c(C)c2cnc(Nc3ccc(N4CCN(CCOCCOCCOCCNC(=O)COc5cccc6c5C(=O)N(C5CCC(=O)NC5=O)C6=O)CC4)cn3)nc2n(C2CCCC2)c1=O [BSJ-03-123]; assay: as above
# Flavopiridol [4] = compound: T2, CN1CC[C@H](c2c(O)cc(O)c3c(=O)cc(-c4ccccc4Cl)oc23)[C@H](O)C1 [Flavopiridol]; assay: as above
# THZ1 = compound: CN(C)C/C=C/C(=O)Nc1ccc(C(=O)Nc2cccc(Nc3ncc(Cl)c(-c4c[nH]c5ccccc45)n3)c2)cc1 [THZ1]; assay: as above
# Neratinib/HKI272 = compound: CCOc1cc2ncc(C#N)c(Nc3ccc(OCc4ccccn4)c(Cl)c3)c2cc1NC(=O)/C=C/CN(C)C [Neratinib/HKI272]
# BVD523 = compound: CC(C)Nc1cc(-c2c[nH]c(C(=O)N[C@H](CO)c3cccc(Cl)c3)c2)c(Cl)cn1 [BVD523]
# [5] = compound: CCC1=CN=CN=C1N2CCN(CC2)CC3=NC4=C(N3)C=C(C=C4)C(F)(F)F
# Paclitaxel = compound: CC(=O)O[C@H]1C(=O)[C@@]2(C)[C@H]([C@H](OC(=O)c3ccccc3)[C@]3(O)C[C@H](OC(=O)[C@H](O)[C@@H](NC(=O)c4ccccc4)c4ccccc4)C(C)=C1C3(C)C)[C@]1(OC(C)=O)CO[C@@H]1C[C@@H]2O [Paclitaxel]
# AZD5363 = compound: NC1(C(=O)N[C@@H](CCO)c2ccc(Cl)cc2)CCN(c2nc[nH]c3nccc2-3)CC1 [AZD5363]
# BSJ-03-123 [6] = compound: T1, BSJ-03-123
# Flavopiridol [7] = compound: T2, Flavopiridol
# R0-3306 = compound: C1=CC2=C(C=CC(=C2)C=C3C(=O)NC(=NCC4=CC=CS4)S3)N=C1 [R0-3306]
# [8] = compound: CO[C@@H](C)Cn1c(=O)n(C)c2cnc3ccc(-c4cncc(C(C)(C)O)c4)cc3c21
# 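Wherever GR50, 72 h is given: breast cancer and non-malignant breast epithelial cell lines, Deep Dye Drop or Dye Drop imaging, nine half-log doses, GR normalized to time-zero plates and DMSO-only controls.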
cell line,measurement,setting,value
PDXHCI002,GR value,THZ531; 0.0001 µM,1.1 GR
same,GR value,THZ531; 0.0003162 µM,1.06 GR
same,GR value,THZ531; 0.001 µM,0.966 GR
same,GR value,THZ531; 0.003162 µM,1.06 GR
same,GR value,THZ531; 0.01 µM,0.958 GR
same,GR value,THZ531; 0.03162 µM,0.782 GR
same,GR value,THZ531; 0.1 µM,0.0491 GR
same,GR value,THZ531; 0.3162 µM,-0.122 GR
same,GR value,THZ531; 1 µM,-0.198 GR
same,GR value,[1]; 0.001 µM,1.08 GR
same,GR value,[1]; 0.003162 µM,1 GR
same,GR value,[1]; 0.01 µM,0.785 GR
same,GR value,[1]; 0.03162 µM,0.527 GR
same,GR value,[1]; 0.1 µM,0.24 GR
same,GR value,[1]; 0.3162 µM,0.0121 GR
same,GR value,[1]; 1 µM,-0.312 GR
same,GR value,[1]; 3.162 µM,-0.593 GR
same,GR value,[1]; 10 µM,-0.688 GR
same,GR value,YKL-5-124; 0.001 µM,0.288 GR
same,GR value,YKL-5-124; 0.003162 µM,0.306 GR
same,GR value,YKL-5-124; 0.01 µM,0.168 GR
same,GR value,YKL-5-124; 0.03162 µM,0.196 GR
same,GR value,YKL-5-124; 0.1 µM,0.158 GR
same,GR value,YKL-5-124; 0.3162 µM,0.0899 GR
same,GR value,YKL-5-124; 1 µM,0.0177 GR
same,GR value,YKL-5-124; 3.162 µM,0.0442 GR
same,GR value,YKL-5-124; 10 µM,-0.129 GR
same,GR value,LEE011/Ribociclib; 0.001 µM,1.04 GR
same,GR value,LEE011/Ribociclib; 0.003162 µM,1 GR
same,GR value,LEE011/Ribociclib; 0.01 µM,0.903 GR
same,GR value,LEE011/Ribociclib; 0.03162 µM,0.925 GR
same,GR value,LEE011/Ribociclib; 0.1 µM,0.882 GR
same,GR value,LEE011/Ribociclib; 0.3162 µM,0.862 GR
same,GR value,LEE011/Ribociclib; 1 µM,0.828 GR
same,GR value,LEE011/Ribociclib; 3.162 µM,0.766 GR
same,GR value,LEE011/Ribociclib; 10 µM,0.51 GR
same,GR value,[2]; 0.0001 µM,1.11 GR
same,GR value,[2]; 0.0003162 µM,1.1 GR
same,GR value,[2]; 0.001 µM,1.11 GR
same,GR value,[2]; 0.003162 µM,1.05 GR
same,GR value,[2]; 0.01 µM,0.744 GR
same,GR value,[2]; 0.03162 µM,-0.331 GR
same,GR value,[2]; 0.1 µM,-0.387 GR
same,GR value,[2]; 0.3162 µM,-0.343 GR
same,GR value,[2]; 1 µM,-0.365 GR
same,GR value,BSJ-03-123 [3]; 0.001 µM,1.08 GR
same,GR value,BSJ-03-123 [3]; 0.003162 µM,1.03 GR
same,GR value,BSJ-03-123 [3]; 0.01 µM,0.992 GR
same,GR value,BSJ-03-123 [3]; 0.03162 µM,0.883 GR
same,GR value,BSJ-03-123 [3]; 0.1 µM,0.812 GR
same,GR value,BSJ-03-123 [3]; 0.3162 µM,0.771 GR
same,GR value,BSJ-03-123 [3]; 1 µM,0.565 GR
same,GR value,BSJ-03-123 [3]; 3.162 µM,0.472 GR
same,GR value,BSJ-03-123 [3]; 10 µM,-0.0835 GR
same,GR value,Flavopiridol [4]; 0.0001 µM,1.02 GR
same,GR value,Flavopiridol [4]; 0.0003162 µM,0.997 GR
same,GR value,Flavopiridol [4]; 0.001 µM,0.973 GR
same,GR value,Flavopiridol [4]; 0.003162 µM,0.997 GR
same,GR value,Flavopiridol [4]; 0.01 µM,0.999 GR
same,GR value,Flavopiridol [4]; 0.03162 µM,0.817 GR
same,GR value,Flavopiridol [4]; 0.1 µM,0.63 GR
same,GR value,Flavopiridol [4]; 0.3162 µM,-0.0265 GR
same,GR value,Flavopiridol [4]; 1 µM,-0.156 GR
same,GR value,THZ1; 0.0001 µM,1.05 GR
same,GR value,THZ1; 0.0003162 µM,1.01 GR
same,GR value,THZ1; 0.001 µM,1.02 GR
same,GR value,THZ1; 0.003162 µM,0.984 GR
same,GR value,THZ1; 0.01 µM,0.541 GR
same,GR value,THZ1; 0.03162 µM,-0.0195 GR
same,GR value,THZ1; 0.1 µM,-0.163 GR
same,GR value,THZ1; 0.3162 µM,-0.148 GR
same,GR value,THZ1; 1 µM,-0.193 GR
same,"GR50, 72 h",Neratinib/HKI272,0.162 µM
same,"GR50, 72 h",BVD523,4.27 µM
same,"GR50, 72 h",[5],> 10 µM
same,"GR50, 72 h",Paclitaxel,0.00249 µM
same,"GR50, 72 h",AZD5363,> 10 µM
same,"GR50, 72 h",BSJ-03-123 [6],1.64 µM
same,"GR50, 72 h",Flavopiridol [7],0.114 µM
same,"GR50, 72 h",R0-3306,6.43 µM
same,"GR50, 72 h",[8],1.82 µM
SUM1315,GR value,THZ531; 0.0001 µM,0.9 GR
same,GR value,THZ531; 0.0003162 µM,1.1 GR
same,GR value,THZ531; 0.001 µM,0.822 GR
same,GR value,THZ531; 0.003162 µM,0.987 GR
same,GR value,THZ531; 0.01 µM,1.1 GR
same,GR value,THZ531; 0.03162 µM,1.14 GR
same,GR value,THZ531; 0.1 µM,1.04 GR
same,GR value,THZ531; 0.3162 µM,0.685 GR
same,GR value,THZ531; 1 µM,-0.604 GR
same,GR value,[1]; 0.001 µM,1.08 GR
same,GR value,[1]; 0.003162 µM,0.8 GR
same,GR value,[1]; 0.01 µM,0.704 GR
same,GR value,[1]; 0.03162 µM,0.436 GR
same,GR value,[1]; 0.1 µM,0.402 GR
same,GR value,[1]; 0.3162 µM,0.259 GR
same,GR value,[1]; 1 µM,0.177 GR
same,GR value,[1]; 3.162 µM,0.109 GR
same,GR value,[1]; 10 µM,-0.164 GR
same,GR value,YKL-5-124; 0.001 µM,0.771 GR
same,GR value,YKL-5-124; 0.003162 µM,0.514 GR
same,GR value,YKL-5-124; 0.01 µM,0.439 GR
same,GR value,YKL-5-124; 0.03162 µM,0.478 GR
same,GR value,YKL-5-124; 0.1 µM,0.393 GR
same,GR value,YKL-5-124; 0.3162 µM,0.264 GR
same,GR value,YKL-5-124; 1 µM,0.133 GR
same,GR value,YKL-5-124; 3.162 µM,0.0326 GR
same,GR value,YKL-5-124; 10 µM,-0.443 GR
same,GR value,LEE011/Ribociclib; 0.001 µM,0.841 GR
same,GR value,LEE011/Ribociclib; 0.003162 µM,0.69 GR
same,GR value,LEE011/Ribociclib; 0.01 µM,0.764 GR
same,GR value,LEE011/Ribociclib; 0.03162 µM,0.763 GR
same,GR value,LEE011/Ribociclib; 0.1 µM,0.671 GR
same,GR value,LEE011/Ribociclib; 0.3162 µM,0.57 GR
same,GR value,LEE011/Ribociclib; 1 µM,0.582 GR
same,GR value,LEE011/Ribociclib; 3.162 µM,0.527 GR
same,GR value,LEE011/Ribociclib; 10 µM,0.445 GR
same,GR value,[2]; 0.0001 µM,1.11 GR
same,GR value,[2]; 0.0003162 µM,0.993 GR
same,GR value,[2]; 0.001 µM,1.01 GR
same,GR value,[2]; 0.003162 µM,0.916 GR
same,GR value,[2]; 0.01 µM,0.617 GR
same,GR value,[2]; 0.03162 µM,-0.616 GR
same,GR value,[2]; 0.1 µM,-0.644 GR
same,GR value,[2]; 0.3162 µM,-0.639 GR
same,GR value,[2]; 1 µM,-0.664 GR
same,GR value,BSJ-03-123 [3]; 0.001 µM,0.883 GR
same,GR value,BSJ-03-123 [3]; 0.003162 µM,0.736 GR
same,GR value,BSJ-03-123 [3]; 0.01 µM,0.79 GR
same,GR value,BSJ-03-123 [3]; 0.03162 µM,0.651 GR
same,GR value,BSJ-03-123 [3]; 0.1 µM,0.822 GR
same,GR value,BSJ-03-123 [3]; 0.3162 µM,0.641 GR
same,GR value,BSJ-03-123 [3]; 1 µM,0.497 GR
same,GR value,BSJ-03-123 [3]; 3.162 µM,0.572 GR
same,GR value,BSJ-03-123 [3]; 10 µM,0.21 GR
same,GR value,Flavopiridol [4]; 0.0001 µM,1.09 GR
same,GR value,Flavopiridol [4]; 0.0003162 µM,0.97 GR
same,GR value,Flavopiridol [4]; 0.001 µM,0.741 GR
same,GR value,Flavopiridol [4]; 0.003162 µM,0.795 GR
same,GR value,Flavopiridol [4]; 0.01 µM,0.876 GR
same,GR value,Flavopiridol [4]; 0.03162 µM,0.76 GR
same,GR value,Flavopiridol [4]; 0.1 µM,0.647 GR
same,GR value,Flavopiridol [4]; 0.3162 µM,-0.451 GR
same,GR value,Flavopiridol [4]; 1 µM,-0.887 GR
same,GR value,THZ1; 0.0001 µM,1.24 GR
same,GR value,THZ1; 0.0003162 µM,1.06 GR
same,GR value,THZ1; 0.001 µM,1.06 GR
same,GR value,THZ1; 0.003162 µM,0.773 GR
same,GR value,THZ1; 0.01 µM,0.999 GR
same,GR value,THZ1; 0.03162 µM,0.982 GR
same,GR value,THZ1; 0.1 µM,0.978 GR
same,GR value,THZ1; 0.3162 µM,0.391 GR
same,GR value,THZ1; 1 µM,-0.906 GR
same,"GR50, 72 h",Neratinib/HKI272,0.0922 µM
same,"GR50, 72 h",BVD523,6 µM
same,"GR50, 72 h",[5],> 10 µM
same,"GR50, 72 h",Paclitaxel,0.00246 µM
same,"GR50, 72 h",AZD5363,> 10 µM
same,"GR50, 72 h",BSJ-03-123 [6],2.05 µM
same,"GR50, 72 h",Flavopiridol [7],0.104 µM
same,"GR50, 72 h",R0-3306,2.79 µM
same,"GR50, 72 h",[8],0.00919 µM
